From paper PMC10395314 (RSC Advances, 2023)

Columns and labels:
[1] = system: caspase-9; assay: Caspase-9 level in HepG2 cells; assay type: cell-based, human
[2] = system: MCF-7; assay: MTT anti-proliferative assay on MCF-7; details: Homo sapiens, MCF7, read-out: In vitro cytotoxicity IC50 MCF-7
[3] = system: HepG2; assay: MTT anti-proliferative assay on HepG2; details: Homo sapiens, HepG2, read-out: In vitro cytotoxicity IC50 HepG2
[4] = system: VEGFR-2; assay: MM-GBSA binding free energy and decomposition; details: 15a versus sorafenib
[5] = system: caspase-3; assay: Caspase-3 level in HepG2 cells; assay type: cell-based, human
[6] = system: HepG2 cells; assay: Apoptosis assay, Annexin V-FITC/PI flow cytometry; assay type: cell-based, human
[7] = system: HepG2 cells; assay: Wound healing; assay type: cell-based, human
[8] = system: Vero cells; assay: Safety assay on non-cancerous Vero cells; assay type: cell-based
[9] = biological target: VEGFR-2 (Homo sapiens, UniProt P35968); assay: In vitro VEGFR-2 inhibition; assay type: biochemical
Chain of VEGFR-2 (Homo sapiens, UniProt P35968) (P35968 20-1356): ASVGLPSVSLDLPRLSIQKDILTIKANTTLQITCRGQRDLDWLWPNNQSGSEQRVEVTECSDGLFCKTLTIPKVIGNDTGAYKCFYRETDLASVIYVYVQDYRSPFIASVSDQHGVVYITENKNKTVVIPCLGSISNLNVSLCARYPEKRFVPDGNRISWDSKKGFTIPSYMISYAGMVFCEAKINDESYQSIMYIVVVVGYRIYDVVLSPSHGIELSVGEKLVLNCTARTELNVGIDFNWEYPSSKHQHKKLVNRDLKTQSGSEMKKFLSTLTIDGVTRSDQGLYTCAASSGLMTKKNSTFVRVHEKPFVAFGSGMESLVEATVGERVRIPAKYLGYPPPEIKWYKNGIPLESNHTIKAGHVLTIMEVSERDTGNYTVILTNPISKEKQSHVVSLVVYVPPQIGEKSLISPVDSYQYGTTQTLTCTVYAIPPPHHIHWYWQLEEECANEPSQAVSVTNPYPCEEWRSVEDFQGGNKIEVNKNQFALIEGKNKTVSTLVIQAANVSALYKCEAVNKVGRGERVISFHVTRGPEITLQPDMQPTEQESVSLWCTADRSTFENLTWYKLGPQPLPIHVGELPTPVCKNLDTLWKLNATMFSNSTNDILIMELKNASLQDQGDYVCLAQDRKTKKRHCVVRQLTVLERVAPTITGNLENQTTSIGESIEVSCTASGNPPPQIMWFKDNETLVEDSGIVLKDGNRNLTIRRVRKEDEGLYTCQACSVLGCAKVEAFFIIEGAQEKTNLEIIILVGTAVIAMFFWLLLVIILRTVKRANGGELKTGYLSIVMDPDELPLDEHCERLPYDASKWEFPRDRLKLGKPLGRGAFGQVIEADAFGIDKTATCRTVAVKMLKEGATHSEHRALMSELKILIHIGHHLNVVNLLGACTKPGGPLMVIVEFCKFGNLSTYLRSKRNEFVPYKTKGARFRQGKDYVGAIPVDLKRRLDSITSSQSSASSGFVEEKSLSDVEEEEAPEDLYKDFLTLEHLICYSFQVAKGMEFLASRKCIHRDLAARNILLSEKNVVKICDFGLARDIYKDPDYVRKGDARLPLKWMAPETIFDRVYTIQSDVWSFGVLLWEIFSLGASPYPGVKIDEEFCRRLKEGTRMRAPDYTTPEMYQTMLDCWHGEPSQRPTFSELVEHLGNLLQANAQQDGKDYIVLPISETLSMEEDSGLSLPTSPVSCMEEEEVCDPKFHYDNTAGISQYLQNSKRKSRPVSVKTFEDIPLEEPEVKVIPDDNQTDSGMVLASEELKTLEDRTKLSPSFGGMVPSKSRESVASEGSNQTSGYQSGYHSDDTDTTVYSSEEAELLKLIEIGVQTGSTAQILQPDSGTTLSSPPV

[10] = HepG2, 0.76 μM, control HepG2 = 1

CC(=NNC(=O)c1cccc(Br)c1)c1ccc(NC(=O)Cn2c(=O)c3c(ncn3C)n(C)c2=O)cc1 [Compound 15a, N-(4-(1-(2-(3-Bromobenzoyl)hydrazono)ethyl)phenyl)-2-(3,7-dimethyl-2,6-dioxo-2,3,6,7-tetrahydro-1H-purin-1-yl)acetamide]
increase of caspase-9 level compared to control ([1]; HepG2, 0.76 μM (IC50 value)): 2.37 fold | Protein expression Caspase-9 [1, 10]: 2.378 | IC50 [2]: 1080 ± 20 nM | IC50 [3]: 760 ± 10 nM | MM-GBSA binding energy smaller than that of the reference compound by [4]: 8.5 kcal/mol | increase of caspase-3 level compared to control ([5]; HepG2, 0.76 μM (IC50 value)): 3.45 fold | Protein expression Caspase-3 [5, 10]: 3.451 | Apoptosis Late ([6]; HepG2, 0.76 µM for 72 h, control 0.13): 12.17 | Apoptosis Early ([6]; HepG2, 0.76 µM for 72 h, control 0.71): 9.63 | Necrosis ([6]; HepG2, 0.76 µM for 72 h, control 2.22): 7.69 | Apoptosis Total ([6]; HepG2, 0.76 µM for 72 h, control 3.06): 29.49 | proportion of HepG2 cells in late-stage apoptosis ([6]; HepG2, from 0.71% in control): 9.63% | proportion of HepG2 cells in early-stage apoptosis ([6]; HepG2, from 3.06% in control): 29.49% | decrease of scratch width ([7]; HepG2, within 48 hours, untreated 65.9%): 34.17% | At 0 h Area ([7]; HepG2 scratch, 0 h): 1000.667 | At 0 h Width ([7]; HepG2 scratch, 0 h): 999.7462 | At 48 h Width ([7]; HepG2 scratch, 48 h, control 339.5385): 657.7792 | At 48 h Area ([7]; HepG2 scratch, 48 h, control 340.5): 658.6667 | RM ([7]; HepG2 scratch, after 48 hours, control 13.74681): 7.124 μm | Wound closure ([7]; HepG2 scratch, after 48 hours, control 65.96135): 34.18 % μm^2 | IC50 ([8]; Chlorocebus sabaeus, Vero, read-out: IC50 against Vero cells): 75200 nM | selectivity index against HepG2 ([8]; based on Vero IC50 versus HepG2 IC50): 98.97 | selectivity index against MCF7 ([8]; based on Vero IC50 versus MCF-7 IC50): 69.64 | IC50 [9]: 239 nM

CC(=NNC(=O)c1ccccc1Cl)c1ccc(NC(=O)Cn2c(=O)c3c(ncn3C)n(C)c2=O)cc1 [Compound 15b, N-(4-(1-(2-(2-Chlorobenzoyl)hydrazono)ethyl)phenyl)-2-(3,7-dimethyl-2,6-dioxo-2,3,6,7-tetrahydro-1H-purin-1-yl)acetamide]
IC50 [2]: 650 ± 10 nM | IC50 [3]: 780 ± 20 nM

CC(=NNC(=O)c1cccc(Cl)c1)c1cccc(NC(=O)Cn2c(=O)c3c(ncn3C)n(C)c2=O)c1 [Compound 16, N-(3-(1-(2-(3-Chlorobenzoyl)hydrazono)ethyl)phenyl)-2-(3,7-dimethyl-2,6-dioxo-2,3,6,7-tetrahydro-1H-purin-1-yl)acetamide]
IC50 [2]: 2470 ± 40 nM | IC50 [3]: 1230 ± 30 nM

CC(=NNC(=O)c1cccnc1)c1ccc(NC(=O)Cn2c(=O)c3c(ncn3C)n(C)c2=O)cc1 [Compound 17, 2-(3,7-Dimethyl-2,6-dioxo-2,3,6,7-tetrahydro-1H-purin-1-yl)-N-(4-(1-(2-nicotinoylhydrazono)ethyl)phenyl)acetamide]
IC50 [2]: 800 ± 10 nM | IC50 [3]: 1050 ± 10 nM

CNC(=O)c1cc(Oc2ccc(NC(=O)Nc3ccc(Cl)c(C(F)(F)F)c3)cc2)ccn1 [Sorafenib, reference compound]
IC50 [2]: 3170 ± 10 nM | IC50 [3]: 2240 ± 60 nM
